{
  "source": "patent US8252832B2",
  "about": "“Kinesin inhibitors as cancer therapeutics” (Novartis AG, priority 2007, dated 2012)",
  "key": {"SUDHL-4": {"tested_on": "SUDHL-4", "experiment": "Cell cycle profile by FACS (propidium iodide DNA content)", "assay_type": "cell-based", "conditions": "SUDHL-4, 48 hr treatment", "description": "(§1) Lymphoma cell line cells were treated with the KSP inhibitors of the invention and analyzed by FACs analysis. Approximately 2×10^5 cells were harvested, cell pellets were washed with cold PBS twice and re-suspended in 500 μL cold PBS. Cells were fixed by adding 8 mL cold 80% ethanol while vortexing slowly. After 15 minutes of incubation fixed cells were washed twice with PBS and cell pellets were re-suspended in 1 mL of PI/RNASE staining buffer (BD Pharmingen™ catalog #550825) and incubated for 15 minutes at 37° C. protected from light. Propidium iodide (PI) is a fluorescent vital dye that stains both DNA and RNA. Therefore the RNA must be removed by digestion with ribonuclease (RNase). Stained cells were passed through a cell strainer into a FACS tube to reduce the number of cell aggregates (BD Falcon #352235) prior to FACS analysis. The DNA content of the fixed and stained cells was analyzed by the BD FACSCalibur flow cytometer using the CellQuest software.\n(§2) Following mitotic arrest, cells have several options including coming out of arrest and dividing normally, undergoing apoptosis directly, or exiting mitosis without cytokinesis (a phenomenon called mitotic slippage). If cells undergo mitotic slippage, they can enter a pseudo-G1 and then either continue to cycle, senesce, or undergo apoptosis. […]"}, "RL": {"tested_on": "RL", "experiment": "Cell cycle profile by FACS (propidium iodide DNA content)", "assay_type": "cell-based, human", "conditions": "24 and 48 hr", "description": "as §1, §2"}, "COLO 205": {"tested_on": "COLO 205", "experiment": "CellTiter-Glo, NCI60 panel", "assay_type": "cell-based, human", "conditions": "Colon; for GI50: Homo sapiens", "source_text": "(§3) Identification of tumor types that are the most sensitive to the KSP inhibitors of the present invention can be accomplished using an unbiased approach that uses several cell-based assays. The assays chosen were as follows: • CellTiter-Glo®. This is an assay designed to measure ATP concentration in a cell culture, and can be correlated to cell number. Briefly CellTiter-Glo® (Promega Corporation) is a homogeneous method using the single CellTiter-Glo® reagent to detect ATP wherein ATP in the assay drives the activity of a thermostable luciferase to create a luminescent signal which can then be measured and correlated with the number of viable cells. Briefly, for adherent cells, 1,000 to 5,000 cells/well were plated in 96-well plates (100 μl/well) and let to adhere for 24 hours before being treated with drug. For non-adherent cells, 1,000 to 10,000 cells/well were plated in 96-well plates (100 μl/well) and immediately treated with drug. Drug dilutions were prepared in DMSO at 1000 times the final concentration. These dilutions were then diluted 1/100 in growth media before being added to the cells (11 μl/well) to achieve the desired final concentration. After 48 h in a 37° C. tissue culture incubator, the plates were processed for the CellTiter-Glo®assay according to the manufacturer's instructions. Protocol for a 72 hour cell proliferation assay: The 72 hour assay was performed the same way as the 48 hour assay except for the following modifications: For adherent cells, 500 to 5,000 cells/well were plated in 96-well plates (90 μl/well cell growth media) and left to adhere for 24 hours before being treated with drug. For non-adherent cells, 1,000 to 10,000 cells/well were plated in 96-well plates (90 μl/well cell growth media) and immediately treated with drug. Data values presented represent the concentration of test compound required for a 50% reduction in growth. • LDH release. The Cytotoxicity Detection KitPLUS (LDH) assay (Roche Diagnostics, Manheim, Germany) measures the amount of LDH released in the media by dying cells; LDH catalyzes the conversion of lactate into pyruvate. The enzymatic reaction is coupled to a chemical reaction that uses a tetrazolium salt to form a formazan that is red and can be detected by its absorbance at 490 nm. This assay measures the amount of cell death after drug treatment. Cells were plated at 10,000 cells/well in 96-well plates (100 μl/well). Adherent cells were let to adhere for 24 hours before being treated with drug, whereas non-adherent cells were immediately treated with drug. Drug dilutions were prepared in DMSO at 1000 times the final concentration. These dilutions were then diluted 1/100 in growth media before being added to the cells (11 μl/well) to achieve the desired final concentration. After 48 h in a 37° C. tissue culture incubator, the plates were processed for the Cytotoxicity Detection KitPLUS (LDH) assay according to the manufacturer's instructions. The media only values were subtracted from all the data points before analysis. Data values presented correspond to the compound concentration wherein LDH output is at half maximal level. • Caspase-Glo® 3/7. The Caspase-Glo® 3/7 Assay (Promega Corporation) is a homogeneous luminescent assay that measures caspase-3/7 activities. The assay provides a proluminescent caspase-3/7 DEVD-aminoluciferin substrate and a thermostable luciferase in a reagent optimized for caspase-3/7 activity, luciferase activity and cell lysis. Adding the single Caspase-Glo® 3/7 Reagent results in cell lysis, followed by caspase cleavage of the substrate. This liberates free aminoluciferin, which is consumed by the luciferase, generating a luminescent signal. The signal is proportional to caspase-3/7 activity. Data values presented correspond to the compound concentration wherein caspase 3/7 activity is at half maximal level. […]"}, "HCT-116": {"tested_on": "HCT-116", "experiment": "CellTiter-Glo, NCI60 panel", "assay_type": "cell-based, human", "conditions": "Colon; for GI50: Homo sapiens", "source_text": "as §3"}, "HCT-15": {"tested_on": "HCT-15", "experiment": "CellTiter-Glo, NCI60 panel", "assay_type": "cell-based, human", "conditions": "Colon; for GI50: Homo sapiens", "source_text": "as §3"}, "HT29": {"tested_on": "HT29", "experiment": "CellTiter-Glo, NCI60 panel", "assay_type": "cell-based, human", "conditions": "for GI50: Homo sapiens, HT-29, Colon", "source_text": "as §3"}, "T-47D": {"tested_on": "T-47D", "experiment": "CellTiter-Glo, NCI60 panel", "assay_type": "cell-based, human", "conditions": "Breast; for GI50: Homo sapiens, T47D", "source_text": "as §3"}, "[1]": {"conditions": "GI50 in nM, read-out: Log(GI50) (converted)"}},
  "note": "Where two headings read alike, the source gives them in different places.",
  "data": [
    {"smiles": "CC(C)(C)[C@H](c1nc(-c2cc(F)ccc2F)cn1Cc1ccccc1)N(CC[C@H](N)CF)C(=O)CO", "note": "[Compound IIa]", "values": [
      {"measurement": "cell cycle profile (DNA content, FACS)", "setting": "SUDHL-4", "value": "underwent apoptosis after 48 hr treatment"},
      {"measurement": "cell cycle profile (DNA content, FACS)", "setting": "RL", "value": "remained arrested in mitosis"},
      {"measurement": "Differential vs mean Log(GI50)", "setting": "COLO 205", "value": "−0.669"},
      {"measurement": "GI50", "setting": "COLO 205; [1]", "value": 10, "unit": "nM"},
      {"measurement": "GI50", "setting": "COLO 205; read-out: GI50", "value": 10, "unit": "nM"},
      {"measurement": "Differential vs mean Log(GI50)", "setting": "HCT-116", "value": 1.191},
      {"measurement": "GI50", "setting": "HCT-116; [1]", "value": 0.138, "unit": "nM"},
      {"measurement": "GI50", "setting": "HCT-116; read-out: GI50", "value": 0.138, "unit": "nM"},
      {"measurement": "Differential vs mean Log(GI50)", "setting": "HCT-15", "value": 0.754},
      {"measurement": "GI50", "setting": "HCT-15; [1]", "value": 0.378, "unit": "nM"},
      {"measurement": "GI50", "setting": "HCT-15; read-out: GI50", "value": 0.378, "unit": "nM"},
      {"measurement": "Differential vs mean Log(GI50)", "setting": "HT29; Colon", "value": "−0.669"},
      {"measurement": "GI50", "setting": "HT29; [1]", "value": 10, "unit": "nM"},
      {"measurement": "GI50", "setting": "HT29; read-out: GI50", "value": 10, "unit": "nM"},
      {"measurement": "Differential vs mean Log(GI50)", "setting": "T-47D", "value": "−0.669"},
      {"measurement": "GI50", "setting": "T-47D; [1]", "value": 10, "unit": "nM"},
      {"measurement": "GI50", "setting": "T-47D; read-out: GI50", "value": 10, "unit": "nM"}
    ]}
  ]
}
